Assay results: patent US12440496B2, “Natriuretic peptide receptor a agonists useful for the treatment of cardiometabolic diseases, kidney disease and diabetes” (Merck Sharp & Dohme LLC, priority 2019, dated 2025)

Target: T1, hNPRA (Homo sapiens, UniProt P16066)
T1 construct: expressed in transfected cells
T1 sequence (P16066 33-1061): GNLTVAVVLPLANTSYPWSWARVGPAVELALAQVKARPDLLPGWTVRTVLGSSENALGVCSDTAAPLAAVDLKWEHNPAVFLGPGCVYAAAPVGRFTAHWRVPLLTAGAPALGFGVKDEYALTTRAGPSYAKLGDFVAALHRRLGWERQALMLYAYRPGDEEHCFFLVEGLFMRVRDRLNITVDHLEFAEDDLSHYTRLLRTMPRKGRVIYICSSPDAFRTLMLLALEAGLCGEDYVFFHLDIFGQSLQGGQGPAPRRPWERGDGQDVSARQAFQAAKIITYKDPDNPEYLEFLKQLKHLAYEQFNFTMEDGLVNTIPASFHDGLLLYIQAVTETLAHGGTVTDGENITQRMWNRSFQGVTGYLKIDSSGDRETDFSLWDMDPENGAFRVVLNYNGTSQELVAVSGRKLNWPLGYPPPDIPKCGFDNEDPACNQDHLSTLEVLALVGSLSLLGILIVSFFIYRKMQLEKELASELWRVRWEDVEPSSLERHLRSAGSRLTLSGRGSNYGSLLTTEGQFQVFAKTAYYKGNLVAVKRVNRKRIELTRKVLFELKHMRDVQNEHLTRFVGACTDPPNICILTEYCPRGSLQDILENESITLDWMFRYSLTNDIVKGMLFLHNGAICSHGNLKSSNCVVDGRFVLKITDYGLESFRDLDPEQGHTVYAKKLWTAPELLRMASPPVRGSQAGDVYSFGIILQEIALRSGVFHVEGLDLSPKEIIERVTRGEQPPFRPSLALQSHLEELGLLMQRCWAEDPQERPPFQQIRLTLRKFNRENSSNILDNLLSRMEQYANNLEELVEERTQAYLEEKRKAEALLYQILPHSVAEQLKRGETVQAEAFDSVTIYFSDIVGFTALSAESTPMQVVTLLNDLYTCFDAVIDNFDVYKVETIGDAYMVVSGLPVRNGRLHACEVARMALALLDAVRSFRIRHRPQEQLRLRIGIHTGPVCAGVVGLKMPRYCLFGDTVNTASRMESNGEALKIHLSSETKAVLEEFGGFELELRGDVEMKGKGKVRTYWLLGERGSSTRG
Assay: NPRA Functional Cell Assay (cGMP HTRF, NPRA HEK JumpIn stable cells)
Assay type: cell-based
Conditions: cGMP production, 1 hour at 37° C., 10-point dose response
Outline: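 cGMP HTRF read-out after 1 hour compound treatment at 37° C. of human NPRA-expressing HEK JumpIn cells, 1500 cells/well, in buffer with phosphodiesterase inhibitors IBMX and RO20 (100 uM each). Signal converted to [cGMP] by calibration curve; EC50s fitted by 4-parameter logistic; 50 nM h-ANP as positive response.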

Row | Structure (SMILES) | EC50 [nM]
1 | CN1CC(NCC[C@@H](NC(=O)c2cc3cc4c(nc3s2)CC[C@H](C(C)(C)C)C4)c2ccc(-c3ccc(=O)[nH]c3)cc2)C1 (racemic) [Example 64, (1-methylazetidin-3-yl)-[rac-(3R)-3-[4-(6-oxo-1H-pyridin-3-yl)phenyl]-3-[[rac-(6S)-6-tert-butyl-5,6,7,8-tetrahydrothieno[2,3-b]quinoline-2-carbonyl]amino]propyl] ammonium;formate] | 1230
2 | CN(C)C1CCN(CCC(NC(=O)c2cc3cc4c(nc3s2)CCC(C(C)(C)C)C4)c2ccc(-c3ccc(=O)[nH]c3)cc2)CC1 (racemic) [Example 28, dimethyl-[1-[rac-(3R)-3-[4-(6-oxo-1H-pyridin-3-yl)phenyl]-3-[[rac-(6S)-6-tert-butyl-5,6,7,8-tetrahydrothieno[2,3-b]quinoline-2-carbonyl]amino]propyl]-4-piperidyl]ammonium;formate] | 446
3 | CN1CCCC(NC(=O)c2cccc([C@@H](CCN3CCC(O)CC3)NC(=O)c3nc4cc5c(nc4s3)CC[C@H](C(C)(C)C)C5)c2)C1 (mixture of isomers) [Example 140, rac-(7S)-7-tert-butyl-N-[rac-(1R)-3-(4-hydroxy-1-piperidyl)-1-[3-[(1-methyl-3-piperidyl)carbamoyl]phenyl]propyl]-5,6,7,8-tetrahydrothiazolo[5,4-b]quinoline-2-carboxamide] | 224
4 | CC1(C)NCCC1NC(=O)c1cccc([C@@H](CCN2CCC(O)CC2)NC(=O)c2nc3cc4c(nc3s2)CC[C@H](C(C)(C)C)C4)c1 (mixture of isomers) [Example 139, rac-(7S)-7-tert-butyl-N-[rac-(1R)-1-[3-[(2,2-dimethylpyrrolidin-3-yl)carbamoyl]phenyl]-3-(4-hydroxy-1-piperidyl)propyl]-5,6,7,8-tetrahydrothiazolo[5,4-b]quinoline-2-carboxamide] | 219
5 | CC(C)(C)[C@H]1CCc2nc3sc(C(=O)N[C@H](CCN4CCC(C(=O)O)CC4)c4cccc(C(=O)NC5CN(Cc6ccccc6)C5)c4)nc3cc2C1 (racemic) [Example 123, 1-[rac-(3R)-3-[3-{(1-benzylazetidin-3-yl)carbamoyl]phenyl]-3-[[rac-(7S)-7-tert-butyl-5,6,7,8-tetrahydrothiazolo [5,4-b]quinoline-2-carbonyl]amino]propyl] piperidin-1-ium-4-carboxylic acid; 2,2,2-trifluoroacetate] | 657
6 | CC(C)(C)[C@H]1CCc2nc3sc(C(=O)N[C@H](CCNCCO)c4ccc(-c5ccc(=O)[nH]c5)cc4)cc3cc2C1 (racemic) [Example 49, 2-hydroxyethyl-[rac-(3R)-3-[4-(6-oxo-1H-pyridin-3-yl)phenyl]-3-[[rac-(6S)-6-tert-butyl-5,6,7,8-tetrahydrothieno[2,3-b]quinoline-2-carbonyl]amino}propyl] ammonium;formate] | 682
7 | CC(C)(C)[C@H]1CCc2nc3sc(C(=O)N[C@H](CCN4CCCC5(CC5)C4)c4cccc(NS(C)(=O)=O)c4)cc3cc2C1 (racemic) [Example 13, ammonium; methylsulfonyl-[3-[rac-(1R)-3-(5-azaspiro[2.5]octan-5-yl)-1-[[rac-(6S)-6-tert-butyl-5,6,7,8-tetrahydrothieno[2,3-b]quinoline-2-carbonyl]amino]propyl]phenyl] azanide] | 809
8 | CC1(O)CN(CC[C@@H](NC(=O)c2cc3cc4c(nc3s2)CC[C@H](C(C)(C)C)C4)c2cccc(NS(C)(=O)=O)c2)C1 (racemic) [Example 16, ammonium; methylsulfonyl-[3-[rac-(1R)-3-(3-hydroxy-3-methyl-azetidin-1-yl)-1-[[rac-(6S)-6-tert-butyl-5,6,7,8-tetrahydrothieno[2,3-b]quinoline-2-carbonyl]amino]propyl]phenyl] azanide] | 1120
9 | CC(C)(C)[C@H]1CCc2nc3sc(C(=O)N[C@H](CCN4CCC(C(=O)O)CC4)c4cccc(C(=O)NC5CCN(C6CC6)C5)c4)nc3cc2C1 (mixture of isomers) [Example 124, 1-[rac-(3R)-3-[3-[(1-cyclopropylpyrrolidin-3-yl)carbamoyl]phenyl]-3-[[rac-(7S)-7-tert-butyl-5,6,7,8-tetrahydrothiazolo [5,4-b]quinoline-2-carbonyl]amino]propyl]piper idin-1-ium-4-carboxylic acid; 2,2,2-trifluoroacetate] | 929

Further lines, results first:

Row | EC50 [nM] | Structure (SMILES)
10 | 6320 | CC(C)(C)[C@H]1CCc2nc3sc(C(=O)N[C@H](CCNC4CCOCC4)c4ccccc4)cc3cc2C1 [Example 248, (6S)-6-tert-butyl-N-[(1R)-1-phenyl-3-(tetrahydro-2H-pyran-4-ylamino)propyl]-5,6,7,8-tetrahydrothieno[2,3-b]quinoline-2-carboxamide]
11 | 1020 | CC(C)(C)[C@H]1CCc2nc3sc(C(=O)N[C@H](CCN4CCC(O)CC4)c4ccc(N5CCOC5=O)cc4)nc3cc2C1 [Example 230, (S)-7-(tert-butyl)-N-((R)-3-(4-hydroxypiperidin-1-yl)-1-(4-(2-oxooxazolidin-3-yl)phenyl)propyl)-5,6,7,8-tetrahydrothiazolo[5,4-b]quinoline-2-carboxamide]
12 | 3100 | CC(C)(C)[C@H]1CCc2nc3sc(C(=O)N[C@H](CCN4CC(O)C4)c4ccccc4)cc3cc2C1 [Example 256, (6S)-6-tert-butyl-N-[(1R)-3-(3-hydroxyazetidin-1-yl)-1-phenylpropyl]-5,6,7,8-tetrahydrothieno[2,3-b]quinoline-2-carboxamide]
13 | 787 | CC(C)(C)[C@H]1CCc2nc3sc(C(=O)N[C@H](CCN4CCC(O)CC4)c4ccc(OCC(N)=O)nc4)nc3cc2C1 (racemic) [Example 193, rac-(7S)-7-tert-butyl-N-[rac-(1R)-1-[6-(2-amino-2-oxo-ethoxy)-3-pyridyl]-3-(4-hydroxy-1-piperidyl)propyl]-5,6,7,8-tetrahydrothiazolo[5,4-b]quinoline-2-carboxamide]
14 | 938 | CC(C)(C)C1CCc2nc3sc(C(=O)NC(CCN4CCC(O)CC4)c4ccc(N5CCC(O)C5=O)nc4)nc3cc2C1 (racemic) [Example 188, rac-(7S)-7-tert-butyl-N-[rac-(1R)-1-[6-(3-hdyroxy-2-oxo-pyrrolidin-1-yl)-3-pyridyl]-3-(4-hydroxy-1-piperidyl)propyl]-5,6,7,8-tetrahydrothiazolo[5,4-b]quinoline-2-carboxamide]
15 | 140 | CC(C)(C)[C@H]1CCc2nc3sc(C(=O)N[C@H](CCN4CCC(O)CC4)c4ccc(-c5c[nH]c(=O)c(F)c5)cc4)nc3cc2C1 [Example 236, (S)-7-(tert-butyl)-N-((R)-1-(4-(5-fluoro-6-oxo-1,6-dihydropyridin-3-yl)phenyl)-3-(4-hydroxypiperidin-1-yl)propyl)-5,6,7,8-tetrahydrothiazolo[5,4-b]quinoline-2-carboxamide]
16 | 656 | CN(C)C1CN(C(=O)c2cccc([C@@H](CCN3CCC(O)CC3)NC(=O)c3nc4cc5c(nc4s3)CC[C@H](C(C)(C)C)C5)c2)C1 (racemic) [Example 148, rac-(7S)-7-tert-butyl-N-[rac-(1R)-1-[3-[3-(dimethylamino)azetidine-1-carbonyl]phenyl]-3-(4-hydroxy-1-piperidyl)propyl]-5,6,7,8-tetrahydrothiazolo[5,4-b]quinoline-2-carboxamide]
17 | 614 | CC(C)(C)[C@H]1CCc2nc3sc(C(=O)N[C@H](CCN4CCC(O)CC4)c4ccc(-c5c[nH]nc5C#N)cc4)nc3cc2C1 (racemic) [Example 166, rac-(7S)-7-tert-butyl-N-[rac-(1R)-1-[4-(3-cyano-1H-pyrazol-4-yl)phenyl]-3-(4-hydroxypiperidin-1-ium-1-yl)propyl]-5,6,7,8-tetrahydrothiazolo[5,4-b]quinoline-2-carboxamide; 2,2,2-trifluoroacetate]
18 | 1240 | CN(CC[C@@H](NC(=O)c1nc2cc3c(nc2s1)CC[C@H](C(C)(C)C)C3)c1ccc(NS(=O)(=O)N(C)C)nc1)Cc1ccn[nH]1 (racemic) [Example 214, methyl-(1H-pyrazol-5-ylmethyl)-[rac-(3R)-3-[6-(dimethylsulfamoylamino)-3-pyridyl]-3-[rac-(7S)-7-tert-butyl-5,6,7,8-tetrahydrothiazolo[5,4-b]quinoline-2-carbonyl]amino]propyl]ammonium; 2,2,2-trifluoroacetate]
